# Assays:
# Format in all cases: in vivo
# [1] = test system: 5×FAD mice; test: Contextual fear conditioning
# Experimental: Male 5×FAD mice were purchased from Jackson laboratories (Stock number 006554) and maintained at 23±2° C. temperature, 60±15% relative humidity with free access to food and water ad libitum. 5×FAD male mice were inbred with wild-type (WT, C57/BL6) female mice to produce heterozygous offspring. Offspring were genotyped to select 5×FAD (APP KM670/671NL (Swedish), APP I716V (Florida), APP V717I (London), PSEN1 M146L (A>C), PSEN1 L286V) gene mutations mice. Two months old WT and 5×FAD mice (male and female, n=10-14 per group) were treated daily with vehicle (1% sodium carbonyl methylcellulose [CMC-Na; Sigma-Aldrich, C5678]), curcumin analogue C1 (5 mg/kg, 10 mg/kg) or curcumin (50 mg/kg; Sigma-Aldrich, 08511) suspended in 1% CMC-Na by oral gavage for 4 months.
# Contextual fear conditioning (CFC) was used to evaluate the fear memory reconsolidation of 5×FAD mice after treatment. The experiment was conducted 30 min after the drug treatment in ANY maze fear conditioning system under licensed ANY maze tracking system connected to a Windows XP computer. A digital camera was installed on each chamber and signals were sent to the computer for analysis. The experiments were conducted in two sound proof chambers. All the experiments were conducted with continuous 40 units of white noise and 40 lux white light. During training, mice were allowed to explore the platform for 2.5 min and then received 3 repeated footshock cycles (30 s) at 30 s intervals, each started with a cue tone (28 s, 1500 Hz) and ended by a footshock ([…], 2 s). On the second day the mice were allowed to explore the platform for 3 min followed by a cue tone (30 s, 1500 Hz) without footshock, and the freezing time was recorded. Contextual fear memory formation and the subsequent remote memory stabilization were evaluated by scoring freezing index (the absence of all but respiratory movement).
# [2] = Pharmacokinetic study in mice, oral (brain and blood levels by LC/MS/MS); conditions: male, mouse, C57BL/6 mice, oral 10 mg/kg, brain
# [3] = test system: 3×Tg mice; test: Open-field test
# Experimental: Homozygous 3×Tg mice (APP KM670/671NL (Swedish), MAPT P301L, PSEN1 M146V) were produced in Hong Kong Baptist University animal house and maintained at 23±2° C. temperature, 60±15% relative humidity with free access to food and water ad libitum. Seven months old WT (129/SvJ, n=6 for male mice; n=10 for female mice) and 3×Tg mice (n=6 for male mice; n=10 for female mice) were treated daily with vehicle (1% CMC-Na; Sigma-Aldrich, C5678]), curcumin analogue C1 (2.5 mg/kg, 5 mg/kg, 10 mg/kg) or curcumin (50 mg/kg; Sigma-Aldrich, 08511) suspended in 1% CMC-Na by oral gavage for 7 months. 3×Tg mice were treated with the indicated compounds for 7 months and then the open-field test was performed to evaluate the exploratory behavior in novel environment. The experiment was conducted 30 min after last dosing time. Mice placed in the center of an empty open field (25 cm×25 cm) were allowed to explore the environment for 5 min without any external disturbance. Ethnovision XT software was used to measure the patterns of movement, time spent in the center and margin, velocity, distance traveled as indicators of agility and exploration.
# [4] = test system: 3×Tg mice; test: Morris-water maze
# Experimental: Homozygous 3×Tg mice (APP KM670/671NL (Swedish), MAPT P301L, PSEN1 M146V) were produced in Hong Kong Baptist University animal house and maintained at 23±2° C. temperature, 60±15% relative humidity with free access to food and water ad libitum. Seven months old WT (129/SvJ, n=6 for male mice; n=10 for female mice) and 3×Tg mice (n=6 for male mice; n=10 for female mice) were treated daily with vehicle (1% CMC-Na; Sigma-Aldrich, C5678]), curcumin analogue C1 (2.5 mg/kg, 5 mg/kg, 10 mg/kg) or curcumin (50 mg/kg; Sigma-Aldrich, 08511) suspended in 1% CMC-Na by oral gavage for 7 months. 3×Tg mice were treated with the indicated compounds for 7 months and Morris-water maze (MWM) was used to evaluate the spatial learning memory. MWM is a circular water (21±1° C.) container with 1 meter diameter. Animals were pre-quarantined and acclimatized to the experimenting room at least 1 week before the start of the experiment. The experiment was started with one day visual platform trial. Each mouse underwent 4 visible platform trails (each trial 60 seconds) with different platform placement, positioned above the water level. Hidden platform training was conducted after mixing a non-toxic paint in the water. Mice were trained for 6 continuous days, each day composed of different session with 4 hidden platform trials (each trial 60 seconds). Each session was designed with randomized animal introduction pattern into the water maze with unchanged platform position. Each trial was conducted with 30 min inter-trial interval and provided with external cues. To assess the long term spatial memory retrieval a probe trial (60 seconds) was conducted 24 h after the last training session. During probe trial water maze was divided into 4 quadrants. The hidden platform in the target quadrant was removed after determining its location. Ethnovision XT software was used to observe and record the swimming pattern. During hidden platform training sessions, time spent to find the platform was taken as a parameter to evaluate memory acquisition. In probe trial percentage of time spent in the target quadrant compared to the other 3 quadrants was calculated.
# [5] = C1 10 mg/kg vs curcumin 50 mg/kg
smiles,measurement,setting,value
"COc1ccccc1/C=C/C(=O)/C=C/c1ccccc1OC [Compound C1, 1,5-bis(2-methoxyphenyl)penta-1,4-dien-3-one]",freezing index (memory reconsolidation) vs vehicle,"[1]; 10 mg/kg oral daily 4 months, P<0.001",significant memory reconsolidation
same,memory improvement compared with curcumin,[1]; [5],better memory improvement than curcumin
same,Tmax,[2],30 min
same,Cmax,[2]; read-out: maximum concentration (Cmax) in the brain,1310 ± 89 ng/g
same,time spent in the center vs vehicle,"[3]; 3×Tg mice, 2.5, 5, 10 mg/kg oral 7 months",dose-dependently decreased
same,exploratory behavior,"[3]; 3×Tg mice, high dose 10 mg/kg oral 7 months, P<0.001",almost recovered the exploratory behavior to the levels of WT mice
same,"percentage of time spent in the target quadrant, probe trial, vs vehicle",[4]; 2.5 mg/kg oral 7 months,significantly increased
same,"percentage of time spent in the target quadrant, probe trial, vs vehicle",[4]; 5 mg/kg oral 7 months,significantly increased
same,distance traveled to find the hidden platform vs vehicle,[4]; 10 mg/kg oral 7 months,significantly reduced
same,"percentage of time spent in the target quadrant, probe trial, vs vehicle",[4]; 10 mg/kg oral 7 months,significantly increased
same,target recognition compared with curcumin,[4]; [5],much better improvement in target recognition than curcumin

# Source: patent US10987319B2, “TFEB activator C1 ameliorates app and tau pathology and rescues cognitive deficits in neurodegenerative diseases” (Hong Kong Baptist University, priority 2018, dated 2021)
